From patent US12569457B2, “Coated beta hydroxybutyric acid crystal and methods for producing the same” (NANJING NUTRABUILDING BIO-TECH CO., LTD., priority 2021, dated 2026)

Assay: Stability test of coated BHB free acid crystal pellets/granules vs BHB free acid crystal at 25° C./60% RH (moisture and dipolymer content)
Format: physicochemical
Experimental: The coated BHB free acid crystal pellets/granules were subjected to a controlled temperature of 25° C./60% RH. The products were subjected to stability testing at the following time intervals: 0 time, 3 months, 6 months, 9 months, and 12 months.
The preparation method of such coated BHB free acid crystal pellets/granules includes the following steps: • (1) Wet granulation: Mix 3 kg of BHB free acid crystals and 0.05 kg of microcrystalline fiber, add 0.06 kg of water for wet granulation to obtain wet materials. The stirring motor rotating speed of the wet granulator is adjusted to 45 r/min, the speed of the shearing head is 800 r/min and the feeding speed of the binder is 5 r/min; • (2) Extrusion: Extrude the wet material obtained in step (1) by the extruder with the sieve plate aperture of 0.8 mm, to obtain strip materials with the same diameter. The screw speed of the extruder is adjusted to 150 r/min. […] Obtain strip materials with the same diameter; • (3) Spheronization: Sphere the strip materials obtained in step (2) at the high speed through the spheronization device to get pellets/granules of the same size and good roundness. The rotation speed of the spheronization device is adjusted to 1000 r/min and the time of spheronization is 6 min; • (4) Drying: Dry the pellets/granules prepared in step (3) to get BHB free acid crystal pellets/granules. The drying temperature is adjusted to 35° C. and the drying time is 25 min; • (5) Coating: Coating the BHB free acid crystal pellets/granules prepared in step (4) by Wurster coater with coating material, which is dissolved in water or ethanol at a solid content of 20% for use. The air inlet speed of the Wurster coater is 25 Hz and the coating temperature is 38° C., and the feeding speed of the coating liquid is 2 r/min. Drying for 15 min after coating is completed to obtain the coated BHB free acid crystal.The coated BHB free acid crystal pellets/granules were subjected to a controlled temperature of 25° C./60% RH. The products were subjected to stability testing at the following time intervals: 0 time, 3 months, 6 months, 9 months, and 12 months.

Dipolymer Content (0 time): 0.38%
Moisture Content (0 time): 0.50%
Dipolymer Content (3 months): 1.42%
Moisture Content (3 months): 2.14%
Dipolymer Content (6 months): 4.29%
Moisture Content (6 months): 10.63%
Dipolymer Content (9 months): 10.65%
Moisture Content (9 months): 18.16%
Dipolymer Content (12 months): 29.07%
Moisture Content (12 months): 29.97%
Structure (SMILES): CC(O)CC(=O)O (stereo not drawn) [BHB Free Acid Crystal, beta hydroxybutyric acid]
